Read-outs that look alike come from different tables or passages of the source.
Tested on: Human breast cancer cell line KPL-1 tumor
Format: in vivo, nude mouse

COc1cccc2c1C(=O)c1c(O)c3c(c(O)c1C2=O)C[C@@](O)(C(=O)CO)C[C@@H]3O[C@H]1C[C@H](N)[C@H](O)[C@H](C)O1 [adriamycine, adriamycin]
Tumor volume, Average (Day 0 (grouping)): 97.7 mm3
Tumor volume, Average (Day 4): 133.6 mm3
Tumor volume, Average (Day 7): 145.4 mm3
Tumor volume, Average (Day 11): 257.9 mm3
Tumor volume, Average (Day 15): 415.2 mm3
Tumor volume, Average (Day 19): 625.2 mm3
Tumor volume, Average (Day 21): 852.6 mm3
T/C (%) at Day 21 (average tumor volume of group / Group I × 100): 63.8%
